Laboratory results taken from ChEMBL document CHEMBL1156725, “8-Biarylchromen-4-one inhibitors of the DNA-dependent protein kinase (DNA-PK)” (Bioorg Med Chem Lett, 2008).

biological target: DNA-dependent protein kinase catalytic subunit (Homo sapiens, UniProt P78527); assay: Inhibition of DNA-dependent protein kinase
Sequence (P78527 whole entry): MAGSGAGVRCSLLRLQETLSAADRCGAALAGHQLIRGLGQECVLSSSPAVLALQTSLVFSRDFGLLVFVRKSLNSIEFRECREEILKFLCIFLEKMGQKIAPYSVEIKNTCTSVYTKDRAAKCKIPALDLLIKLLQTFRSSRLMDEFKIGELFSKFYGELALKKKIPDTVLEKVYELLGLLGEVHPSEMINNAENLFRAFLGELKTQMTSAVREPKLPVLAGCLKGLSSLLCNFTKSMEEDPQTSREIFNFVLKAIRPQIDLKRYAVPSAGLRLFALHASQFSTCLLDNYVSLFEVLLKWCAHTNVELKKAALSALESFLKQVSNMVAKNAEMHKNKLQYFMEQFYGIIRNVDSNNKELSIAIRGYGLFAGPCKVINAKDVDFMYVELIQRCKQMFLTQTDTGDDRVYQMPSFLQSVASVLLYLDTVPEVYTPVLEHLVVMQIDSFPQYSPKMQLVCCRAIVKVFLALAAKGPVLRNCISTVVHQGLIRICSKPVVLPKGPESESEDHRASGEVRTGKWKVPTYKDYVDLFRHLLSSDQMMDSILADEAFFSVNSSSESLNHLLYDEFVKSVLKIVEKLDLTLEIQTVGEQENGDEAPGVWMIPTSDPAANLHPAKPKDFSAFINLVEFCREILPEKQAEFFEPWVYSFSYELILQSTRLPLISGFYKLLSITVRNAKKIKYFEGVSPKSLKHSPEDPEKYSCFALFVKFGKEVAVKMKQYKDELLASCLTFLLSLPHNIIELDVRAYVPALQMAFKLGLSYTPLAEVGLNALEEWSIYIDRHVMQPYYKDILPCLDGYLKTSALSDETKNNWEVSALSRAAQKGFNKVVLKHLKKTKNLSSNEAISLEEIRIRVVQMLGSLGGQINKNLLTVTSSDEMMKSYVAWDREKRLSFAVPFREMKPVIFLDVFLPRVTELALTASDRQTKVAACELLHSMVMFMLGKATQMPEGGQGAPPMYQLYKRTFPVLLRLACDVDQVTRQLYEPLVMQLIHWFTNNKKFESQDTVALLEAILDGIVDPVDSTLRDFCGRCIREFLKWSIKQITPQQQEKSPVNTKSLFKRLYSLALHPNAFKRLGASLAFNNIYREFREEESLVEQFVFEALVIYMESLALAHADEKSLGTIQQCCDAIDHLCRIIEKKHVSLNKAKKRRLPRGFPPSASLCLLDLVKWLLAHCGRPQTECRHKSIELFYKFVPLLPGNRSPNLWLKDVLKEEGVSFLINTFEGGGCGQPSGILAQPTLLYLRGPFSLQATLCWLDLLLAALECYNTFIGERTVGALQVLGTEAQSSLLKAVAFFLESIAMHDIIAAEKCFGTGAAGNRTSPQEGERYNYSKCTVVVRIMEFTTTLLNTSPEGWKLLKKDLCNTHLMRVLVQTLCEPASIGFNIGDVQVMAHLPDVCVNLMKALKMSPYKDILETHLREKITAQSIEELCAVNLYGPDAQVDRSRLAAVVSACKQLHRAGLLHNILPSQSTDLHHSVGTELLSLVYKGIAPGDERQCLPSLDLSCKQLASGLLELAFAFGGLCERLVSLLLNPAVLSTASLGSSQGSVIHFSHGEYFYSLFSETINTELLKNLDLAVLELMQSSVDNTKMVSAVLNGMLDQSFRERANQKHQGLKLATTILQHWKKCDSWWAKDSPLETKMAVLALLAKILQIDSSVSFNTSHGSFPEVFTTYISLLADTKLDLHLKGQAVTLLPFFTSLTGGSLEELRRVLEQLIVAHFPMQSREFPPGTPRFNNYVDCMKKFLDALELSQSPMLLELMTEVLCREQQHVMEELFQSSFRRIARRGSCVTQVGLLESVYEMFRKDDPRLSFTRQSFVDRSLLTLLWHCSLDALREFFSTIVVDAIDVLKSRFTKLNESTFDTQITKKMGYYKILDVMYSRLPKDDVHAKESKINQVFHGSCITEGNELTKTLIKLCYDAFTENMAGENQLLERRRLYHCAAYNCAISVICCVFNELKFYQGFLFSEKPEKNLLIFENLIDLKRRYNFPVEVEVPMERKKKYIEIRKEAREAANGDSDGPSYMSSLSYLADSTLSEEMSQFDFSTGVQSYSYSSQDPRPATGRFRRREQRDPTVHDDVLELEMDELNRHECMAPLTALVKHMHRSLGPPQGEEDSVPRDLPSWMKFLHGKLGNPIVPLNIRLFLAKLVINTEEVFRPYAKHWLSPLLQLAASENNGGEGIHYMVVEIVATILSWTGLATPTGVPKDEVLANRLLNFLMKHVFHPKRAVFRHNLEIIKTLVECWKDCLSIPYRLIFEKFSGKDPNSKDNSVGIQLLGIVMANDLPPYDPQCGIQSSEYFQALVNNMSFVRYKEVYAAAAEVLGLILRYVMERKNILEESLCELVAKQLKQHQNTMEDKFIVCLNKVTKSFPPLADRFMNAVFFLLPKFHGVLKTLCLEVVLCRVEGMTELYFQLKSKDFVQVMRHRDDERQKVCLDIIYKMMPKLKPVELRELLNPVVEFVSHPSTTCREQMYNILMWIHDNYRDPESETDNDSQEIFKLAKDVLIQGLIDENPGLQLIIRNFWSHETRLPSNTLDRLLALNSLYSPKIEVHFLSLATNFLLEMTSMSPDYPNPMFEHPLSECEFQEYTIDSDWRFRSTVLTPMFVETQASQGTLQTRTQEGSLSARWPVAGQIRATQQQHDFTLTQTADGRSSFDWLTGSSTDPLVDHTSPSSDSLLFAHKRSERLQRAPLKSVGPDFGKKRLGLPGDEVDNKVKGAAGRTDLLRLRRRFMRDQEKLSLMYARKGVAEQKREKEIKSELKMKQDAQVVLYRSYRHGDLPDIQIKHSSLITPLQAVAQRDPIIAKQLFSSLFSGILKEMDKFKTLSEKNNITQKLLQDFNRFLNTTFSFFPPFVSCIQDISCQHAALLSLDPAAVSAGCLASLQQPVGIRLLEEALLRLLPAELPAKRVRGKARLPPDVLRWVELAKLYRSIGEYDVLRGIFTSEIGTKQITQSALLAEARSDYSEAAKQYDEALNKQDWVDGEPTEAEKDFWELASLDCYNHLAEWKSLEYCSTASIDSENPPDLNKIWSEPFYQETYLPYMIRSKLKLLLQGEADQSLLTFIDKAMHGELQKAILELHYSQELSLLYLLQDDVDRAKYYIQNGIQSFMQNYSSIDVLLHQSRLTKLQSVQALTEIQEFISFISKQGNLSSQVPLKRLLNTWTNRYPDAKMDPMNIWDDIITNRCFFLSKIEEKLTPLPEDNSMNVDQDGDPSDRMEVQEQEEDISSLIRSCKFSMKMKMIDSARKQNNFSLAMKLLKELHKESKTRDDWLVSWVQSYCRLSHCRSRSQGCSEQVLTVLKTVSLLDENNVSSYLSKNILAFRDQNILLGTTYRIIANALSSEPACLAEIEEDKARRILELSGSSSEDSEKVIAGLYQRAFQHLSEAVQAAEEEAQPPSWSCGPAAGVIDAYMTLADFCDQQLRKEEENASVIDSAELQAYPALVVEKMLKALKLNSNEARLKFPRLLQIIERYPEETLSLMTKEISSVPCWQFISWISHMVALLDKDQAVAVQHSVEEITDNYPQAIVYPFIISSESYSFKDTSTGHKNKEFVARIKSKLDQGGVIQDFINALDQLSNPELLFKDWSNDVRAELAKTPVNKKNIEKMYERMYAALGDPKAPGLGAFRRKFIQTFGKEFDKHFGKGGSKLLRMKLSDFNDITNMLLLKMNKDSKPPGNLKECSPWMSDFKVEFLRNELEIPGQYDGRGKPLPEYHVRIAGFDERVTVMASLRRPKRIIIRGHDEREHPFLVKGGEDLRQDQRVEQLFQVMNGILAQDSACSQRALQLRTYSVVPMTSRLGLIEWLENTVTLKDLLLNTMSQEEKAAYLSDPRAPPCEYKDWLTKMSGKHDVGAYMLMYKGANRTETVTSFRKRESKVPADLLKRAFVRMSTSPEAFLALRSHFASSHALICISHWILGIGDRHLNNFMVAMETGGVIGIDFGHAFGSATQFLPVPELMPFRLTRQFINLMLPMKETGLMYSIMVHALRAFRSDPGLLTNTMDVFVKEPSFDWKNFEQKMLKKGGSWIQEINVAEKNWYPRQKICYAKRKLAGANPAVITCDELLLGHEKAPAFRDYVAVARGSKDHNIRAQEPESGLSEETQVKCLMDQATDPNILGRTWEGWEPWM

Structure (SMILES)	IC50 [µM]
O=c1cc(N2CCOCC2)oc2c(-c3cccc4c3sc3ccccc34)cccc12	0.012
O=c1cc(N2CCOCC2)oc2c(-c3cccc(-c4ncccn4)c3)cccc12	3.05
O=c1cc(N2CCOCC2)oc2c(-c3cccc(-c4cncnc4)c3)cccc12	1.57
O=c1cc(N2CCOCC2)oc2c(-c3cc(-c4ccccc4)cs3)cccc12	0.09
O=c1cc(N2CCOCC2)oc2c(-c3ccc(-c4ccccc4)s3)cccc12	0.4
O=c1cc(N2CCOCC2)oc2c(-c3ncc(-c4ccccc4)s3)cccc12	0.37
O=c1cc(N2CCOCC2)oc2c(-c3cccc(-c4ccc(O)cc4)c3)cccc12	0.14
N#Cc1ccc(-c2cccc(-c3cccc4c(=O)cc(N5CCOCC5)oc34)c2)cc1	1.48
Nc1cc(C(=O)O)cc(-c2cccc(-c3cccc4c(=O)cc(N5CCOCC5)oc34)c2)c1	0.51
O=c1cc(N2CCOCC2)oc2c(-c3cccc(-c4ccco4)c3)cccc12	0.38
O=c1cc(N2CCOCC2)oc2c(-c3cccc(-c4ccoc4)c3)cccc12	0.27
O=c1cc(N2CCOCC2)oc2c(-c3cccc(-c4ccc(CO)cc4)c3)cccc12	1
NCc1ccc(-c2cccc(-c3cccc4c(=O)cc(N5CCOCC5)oc34)c2)cc1	1.9
Cc1cc(-c2cccc(-c3cccc4c(=O)cc(N5CCOCC5)oc34)c2)cs1	1.13
Cc1cscc1-c1cccc(-c2cccc3c(=O)cc(N4CCOCC4)oc23)c1	0.64
COC(=O)c1cc(N)cc(-c2cccc(-c3cccc4c(=O)cc(N5CCOCC5)oc34)c2)c1	0.26
O=c1cc(N2CCOCC2)oc2c(-c3cccc(-c4ccsc4)c3)cccc12	0.02
Cc1ccc(-c2cccc(-c3cccc4c(=O)cc(N5CCOCC5)oc34)c2)s1	1.07
Cn1ccnc1-c1cccc(-c2cccc3c(=O)cc(N4CCOCC4)oc23)c1	3.01
Cn1cncc1-c1cccc(-c2cccc3c(=O)cc(N4CCOCC4)oc23)c1	1.23
O=c1cc(N2CCOCC2)oc2c(-c3cccc(-c4nccs4)c3)cccc12	0.49
O=c1cc(N2CCOCC2)oc2c(-c3cccc(-c4ccncc4)c3)cccc12	0.51
O=c1cc(N2CCOCC2)oc2c(-c3cccc(-c4ccccc4)c3)cccc12	0.18
COc1ccc(-c2cccc(-c3cccc4c(=O)cc(N5CCOCC5)oc34)c2)cc1	0.83
O=Cc1ccc(-c2cccc(-c3cccc4c(=O)cc(N5CCOCC5)oc34)c2)cc1	1.1
Cc1ccsc1-c1cccc(-c2cccc3c(=O)cc(N4CCOCC4)oc23)c1	0.36
O=c1cc(N2CCOCC2)oc2c(-c3cccc(-c4cccs4)c3)cccc12	0.018
O=c1cc(N2CCOCC2)oc2c(-c3cccc(-c4ccccn4)c3)cccc12	0.88
O=c1cc(N2CCOCC2)oc2c(-c3cccc(-c4cc[nH]c4)c3)cccc12	1.82
O=c1cc(N2CCOCC2)oc2c(-c3ccccc3)cccc12 [LY-294002]	1.6
